Assay results as given in ChEMBL document CHEMBL1143091, “Synthesis and SAR studies of biaryloxy-substituted triazoles as antifungal agents” (2008).
In brackets after ≈: the same amount, converted by molar mass.

Key:
Nannizzia gypsea = test: Antimicrobial activity against Microsporum gypseum isolates; assay type: functional
Cryptococcus neoformans = test: Antimicrobial activity against Cryptococcus neoformans ATCC 32609; assay type: functional
Candida albicans = test: Antimicrobial activity against Candida albicans ATCC 76615; assay type: functional
Trichophyton rubrum = test: Antimicrobial activity against Trichophyton rubrum isolates; assay type: functional
Aspergillus fumigatus = test: Antimicrobial activity against Aspergillus fumigatus isolates; assay type: functional
Candida parapsilosis = test: Antimicrobial activity against Candida parapsilosis isolates; settings: Lodderomyces parapsilosis
Candida tropicalis = test: Antimicrobial activity against Candida tropicalis isolates; assay type: functional
Fonsecaea compacta = test: Antimicrobial activity against Fonsecaea compacta isolates; assay type: functional

| MIC (Nannizzia gypsea) [µg/mL] | MIC (Cryptococcus neoformans) [µg/mL] | MIC (Candida albicans) [µg/mL] | MIC (Trichophyton rubrum) [µg/mL] | MIC (Aspergillus fumigatus) [µg/mL] | MIC (Candida parapsilosis) [µg/mL] | MIC (Candida tropicalis) [µg/mL] | MIC (Fonsecaea compacta) [µg/mL] | Compound |
| --- | --- | --- | --- | --- | --- | --- | --- | --- |
| 1 (≈ 1.85 µM) | 0.25 (≈ 0.462 µM) | 0.25 (≈ 0.462 µM) | 1 (≈ 1.85 µM) | 64 (≈ 118 µM) | 0.25 (≈ 0.462 µM) | 0.25 (≈ 0.462 µM) | 1 (≈ 1.85 µM) | Cc1cccc(C(=O)Nc2ccc(-c3ccc(OCC(O)(Cn4cncn4)c4ccc(F)cc4F)cc3)cn2)c1 (configuration not stated) |
| 1 (≈ 2.15 µM) | 4 (≈ 8.61 µM) | 0.25 (≈ 0.538 µM) | 0.0625 (≈ 0.135 µM) | 64 (≈ 138 µM) | 0.25 (≈ 0.538 µM) | 0.0625 (≈ 0.135 µM) | 4 (≈ 8.61 µM) | CN(C)Cc1ccc(-c2ccc(OCC(O)(Cn3cncn3)c3ccc(F)cc3F)cc2)cc1 (configuration not stated) |
| 1 (≈ 2 µM) | 1 (≈ 2 µM) | 0.25 (≈ 0.5 µM) | 0.25 (≈ 0.5 µM) | > 64 | 0.25 (≈ 0.5 µM) | 0.25 (≈ 0.5 µM) | 1 (≈ 2 µM) | O=C(CCl)Nc1ccc(-c2ccc(OCC(O)(Cn3cncn3)c3ccc(F)cc3F)cc2)cn1 (configuration not stated) |
| 1 (≈ 2.29 µM) | 1 (≈ 2.29 µM) | 0.0156 (≈ 0.0357 µM) | 1 (≈ 2.29 µM) | > 64 | 0.0625 (≈ 0.143 µM) | 0.0156 (≈ 0.0357 µM) | 16 (≈ 36.6 µM) | OCc1ccc(-c2ccc(OCC(O)(Cn3cncn3)c3ccc(F)cc3F)cc2)cc1 (configuration not stated) |
| > 64 | 16 (≈ 35.4 µM) | 0.0625 (≈ 0.138 µM) | > 64 | > 64 | 0.0625 (≈ 0.138 µM) | 0.0625 (≈ 0.138 µM) | 1 (≈ 2.21 µM) | CCNc1ccc(-c2ccc(OCC(O)(Cn3cncn3)c3ccc(F)cc3F)cc2)cn1 (configuration not stated) |
| 1 (≈ 2.09 µM) | 16 (≈ 33.4 µM) | 1 (≈ 2.09 µM) | 0.25 (≈ 0.522 µM) | > 64 | 0.0625 (≈ 0.131 µM) | 0.0625 (≈ 0.131 µM) | 4 (≈ 8.36 µM) | CC(C)NCc1ccc(-c2ccc(OCC(O)(Cn3cncn3)c3ccc(F)cc3F)cc2)cc1 (configuration not stated) |
| 0.25 (≈ 0.59 µM) | 64 (≈ 151 µM) | 0.0625 (≈ 0.148 µM) | 0.0156 (≈ 0.0368 µM) | 4 (≈ 9.45 µM) | 0.25 (≈ 0.59 µM) | 0.25 (≈ 0.59 µM) | 0.0625 (≈ 0.148 µM) | Nc1ccc(-c2ccc(OCC(O)(Cn3cncn3)c3ccc(F)cc3F)cc2)cn1 (configuration not stated) |
| 1 (≈ 1.74 µM) | 0.25 (≈ 0.434 µM) | 0.0156 (≈ 0.0271 µM) | 0.25 (≈ 0.434 µM) | > 64 | 0.0625 (≈ 0.109 µM) | 0.0625 (≈ 0.109 µM) | 1 (≈ 1.74 µM) | O=C(Nc1ccc(-c2ccc(OCC(O)(Cn3cncn3)c3ccc(F)cc3F)cc2)cn1)c1ccc(CCl)cc1 (configuration not stated) |
| > 64 | > 64 | 0.25 (≈ 0.457 µM) | 1 (≈ 1.83 µM) | > 64 | 0.25 (≈ 0.457 µM) | 0.25 (≈ 0.457 µM) | > 64 | OC(COc1ccc(-c2ccc(CNc3cccc(Cl)c3)cc2)cc1)(Cn1cncn1)c1ccc(F)cc1F (configuration not stated) |
| 1 (≈ 2.15 µM) | 16 (≈ 34.4 µM) | 1 (≈ 2.15 µM) | 0.25 (≈ 0.538 µM) | > 64 | 0.25 (≈ 0.538 µM) | 0.25 (≈ 0.538 µM) | 1 (≈ 2.15 µM) | CCNCc1ccc(-c2ccc(OCC(O)(Cn3cncn3)c3ccc(F)cc3F)cc2)cc1 (configuration not stated) |
| 1 (≈ 1.79 µM) | 1 (≈ 1.79 µM) | 0.0625 (≈ 0.112 µM) | 0.25 (≈ 0.448 µM) | 64 (≈ 115 µM) | 0.25 (≈ 0.448 µM) | 0.25 (≈ 0.448 µM) | 0.25 (≈ 0.448 µM) | COc1ccc(C(=O)Nc2ccc(-c3ccc(OCC(O)(Cn4cncn4)c4ccc(F)cc4F)cc3)cn2)cc1 (configuration not stated) |
| > 64 | 1 (≈ 1.9 µM) | 1 (≈ 1.9 µM) | 16 (≈ 30.4 µM) | > 64 | 1 (≈ 1.9 µM) | 0.25 (≈ 0.475 µM) | 16 (≈ 30.4 µM) | CN(Cc1ccc(-c2ccc(OCC(O)(Cn3cncn3)c3ccc(F)cc3F)cc2)cc1)c1ccccc1 (configuration not stated) |
| 0.0625 (≈ 0.118 µM) | > 64 | 0.0625 (≈ 0.118 µM) | 0.0625 (≈ 0.118 µM) | 64 (≈ 121 µM) | 0.0625 (≈ 0.118 µM) | 0.0625 (≈ 0.118 µM) | 0.25 (≈ 0.472 µM) | Oc1ccccc1CNc1ccc(-c2ccc(OCC(O)(Cn3cncn3)c3ccc(F)cc3F)cc2)cn1 (configuration not stated) |

| Compound | MIC (Nannizzia gypsea) [µg/mL] | MIC (Cryptococcus neoformans) [µg/mL] | MIC (Candida albicans) [µg/mL] | MIC (Trichophyton rubrum) [µg/mL] | MIC (Aspergillus fumigatus) [µg/mL] | MIC (Candida parapsilosis) [µg/mL] | MIC (Candida tropicalis) [µg/mL] | MIC (Fonsecaea compacta) [µg/mL] |
| --- | --- | --- | --- | --- | --- | --- | --- | --- |
| CC(=O)N1CCN(c2ccc(OCC3COC(Cn4ccnc4)(c4ccc(Cl)cc4Cl)O3)cc2)CC1 (configuration not stated) [KETOCONAZOLE] | 0.25 (≈ 0.47 µM) | 0.0156 (≈ 0.0294 µM) | 0.25 (≈ 0.47 µM) | 0.25 (≈ 0.47 µM) | 1 (≈ 1.88 µM) | 0.0625 (≈ 0.118 µM) | 0.0625 (≈ 0.118 µM) | 0.25 (≈ 0.47 µM) |
